This note sets out measurements from patent US8859546B2, “Picolinamide inhibitors of kinases” (AbbVie Inc., priority 2011, dated 2014).

In this test the target is T1, ALK (Homo sapiens, UniProt Q9UM73).
T1 construct: purchased Millipore
T1 sequence (Q9UM73 19-1620): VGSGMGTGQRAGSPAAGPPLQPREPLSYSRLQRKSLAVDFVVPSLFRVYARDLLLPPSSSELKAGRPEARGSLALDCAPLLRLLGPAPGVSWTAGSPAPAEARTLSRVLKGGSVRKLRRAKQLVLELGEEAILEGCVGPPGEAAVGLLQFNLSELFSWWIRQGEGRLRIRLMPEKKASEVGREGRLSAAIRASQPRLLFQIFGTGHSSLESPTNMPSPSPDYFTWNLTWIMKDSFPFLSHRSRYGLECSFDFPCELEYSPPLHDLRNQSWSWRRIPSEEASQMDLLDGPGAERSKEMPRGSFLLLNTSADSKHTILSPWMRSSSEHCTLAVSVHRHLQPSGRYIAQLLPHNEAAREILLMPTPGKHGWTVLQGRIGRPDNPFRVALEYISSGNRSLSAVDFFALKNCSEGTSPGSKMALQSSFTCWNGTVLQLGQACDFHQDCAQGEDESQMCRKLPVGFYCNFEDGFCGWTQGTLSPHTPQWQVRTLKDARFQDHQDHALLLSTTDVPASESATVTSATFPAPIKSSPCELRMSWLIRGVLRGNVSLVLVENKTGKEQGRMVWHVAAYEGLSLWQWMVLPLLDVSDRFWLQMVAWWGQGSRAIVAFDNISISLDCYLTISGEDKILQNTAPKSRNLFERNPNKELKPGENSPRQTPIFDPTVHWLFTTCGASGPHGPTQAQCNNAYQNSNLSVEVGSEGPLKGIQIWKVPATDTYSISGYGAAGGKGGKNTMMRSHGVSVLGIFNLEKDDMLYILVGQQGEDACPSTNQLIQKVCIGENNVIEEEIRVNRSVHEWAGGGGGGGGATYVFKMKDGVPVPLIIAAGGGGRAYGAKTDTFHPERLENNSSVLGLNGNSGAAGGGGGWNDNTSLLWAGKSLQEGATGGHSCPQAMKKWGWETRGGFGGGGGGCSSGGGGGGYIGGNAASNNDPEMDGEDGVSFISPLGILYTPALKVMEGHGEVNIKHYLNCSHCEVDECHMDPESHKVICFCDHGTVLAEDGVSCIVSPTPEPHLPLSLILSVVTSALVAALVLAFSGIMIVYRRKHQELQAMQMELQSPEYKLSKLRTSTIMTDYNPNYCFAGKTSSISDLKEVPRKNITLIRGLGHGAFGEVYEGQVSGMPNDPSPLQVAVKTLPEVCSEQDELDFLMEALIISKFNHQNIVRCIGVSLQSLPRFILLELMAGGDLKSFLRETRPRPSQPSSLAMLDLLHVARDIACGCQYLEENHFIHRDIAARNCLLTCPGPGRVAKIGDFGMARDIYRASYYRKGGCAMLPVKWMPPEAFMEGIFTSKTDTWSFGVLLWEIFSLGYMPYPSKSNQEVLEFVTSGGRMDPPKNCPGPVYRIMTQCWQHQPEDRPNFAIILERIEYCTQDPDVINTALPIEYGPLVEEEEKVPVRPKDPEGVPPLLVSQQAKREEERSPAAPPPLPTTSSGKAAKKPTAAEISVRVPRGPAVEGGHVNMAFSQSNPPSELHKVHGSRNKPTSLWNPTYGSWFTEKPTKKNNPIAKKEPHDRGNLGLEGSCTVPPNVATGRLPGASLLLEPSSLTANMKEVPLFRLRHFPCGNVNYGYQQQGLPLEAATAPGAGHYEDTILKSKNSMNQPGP
Description: ALK kinase assay (HTRF), apparent Ki. It is filed as biochemical. The settings on record: apparent Ki from IC50 by Cheng-Prusoff; ALK (Millipore), 50 μM ATP; read-out: HTRF_ALK Human-Ki. On the technique in general: In TR-FRET formats the signal depends on donor and acceptor labels being close together.
In the case of `CC(c1ccccc1)c1cnc(C(N)=O)c(Nc2ccc(N3CCN(C)CC3)cc2)c1` (centres unmarked) [Example 11, 3-{[4-(4-methylpiperazin-1-yl)phenyl]amino}-5-(1-phenylethyl)pyridine-2-carboxamide], the Ki was in the range of 100 to 1000 nM.
With `CN1CCN(c2ccc(Nc3cc(Cc4cc(F)ccc4Cl)cnc3C(N)=O)cc2Cl)CC1` [Example 40, 5-(2-chloro-5-fluorobenzyl)-3-{[3-chloro-4-(4-methylpiperazin-1-yl)phenyl]amino}pyridine-2-carboxamide], the Ki lay in the range of 100 to 1000 nM.
Under `CN1CCN(c2ccc(Nc3cc(Cc4ccccc4Cl)cnc3C(N)=O)cc2)CC1` [Example 23, 5-(2-chlorobenzyl)-3-{[4-(4-methylpiperazin-1-yl)phenyl]amino}pyridine-2-carboxamide] stands 100 to 1000 nM; under `CN1CCN(c2ccc(Nc3cc(Cc4c(F)cccc4Cl)cnc3C(N)=O)cc2)CC1` [Example 30, 5-(2-chloro-6-fluorobenzyl)-3-{[4-(4-methylpiperazin-1-yl)phenyl]amino}pyridine-2-carboxamide], under 100 nM; under `CC(c1cccc(F)c1)c1cnc(C(N)=O)c(Nc2ccc(N3CCN(C)CC3)cc2)c1` (centres unmarked) [Example 34, 5-[1-(3-fluorophenyl)ethyl]-3-{[4-(4-methylpiperazin-1-yl)phenyl]amino}pyridine-2-carboxamide], 100 to 1000 nM.
As for `CN1CCN(c2cccc(Nc3cc(Cc4ccccc4)cnc3C(N)=O)c2)CC1` [Example 4, 5-benzyl-3-{[3-(4-methylpiperazin-1-yl)phenyl]amino}pyridine-2-carboxamide], the Ki lay in the range of 100 to 1000 nM.
Next, `CN1CCN(c2ccc(Nc3cc(Cc4ccc(F)cc4F)cnc3C(N)=O)cc2)CC1` [Example 20, 5-(2,4-difluorobenzyl)-3-{[4-(4-methylpiperazin-1-yl)phenyl]amino}pyridine-2-carboxamide]: 100 to 1000 nM; `CCN(CC)CCN1CCN(c2ccc(Nc3cc(Cc4c(F)cccc4Cl)cnc3C(N)=O)c(OC)c2)CC1` [Example 44, 5-(2-chloro-6-fluorobenzyl)-3-[(4-{4-[2-(diethylamino)ethyl]piperazin-1-yl}-2-methoxyphenyl)amino]pyridine-2-carboxamide]: under 100 nM; `CN1CCN(c2ccc(Nc3cc(Cc4cc(F)cc(F)c4)cnc3C(N)=O)cc2)CC1` [Example 18, 5-(3,5-difluorobenzyl)-3-{[4-(4-methylpiperazin-1-yl)phenyl]amino}pyridine-2-carboxamide]: under 100 nM.
`CN1CCN(c2ccc(Nc3cc(Cc4ccccc4)cnc3C(N)=O)cc2)CC1` [Example 3, 5-benzyl-3-{[4-(4-methylpiperazin-1-yl)phenyl]amino}pyridine-2-carboxamide]: the Ki fell in the range of 100 to 1000 nM.
Take `CN1CCN(c2ccc(Nc3cc(-c4cccc(F)c4)cnc3C(N)=O)cc2)CC1` [Example 51, 5-(3-fluorophenyl)-3-{[4-(4-methylpiperazin-1-yl)phenyl]amino}pyridine-2-carboxamide]: the Ki is over 1000 nM.
